Eleven molecules from patent US20260297065A1, “AROMATIC SUBSTITUENT-CONTAINING (HETERO) ARYL-IMIDAZOLE COMPOUND, AND PREPARATION METHOD THEREFOR AND USE THEREOF” (OPEN SOURCE THERAPEUTICS, priority 2022, published 2026) can be followed below.

The structures appear in SMILES notation.

In the assay the target is T1, soluble epoxide hydrolase (sEH) (Homo sapiens, UniProt P34913).
T1 sequence (P34913 1-555): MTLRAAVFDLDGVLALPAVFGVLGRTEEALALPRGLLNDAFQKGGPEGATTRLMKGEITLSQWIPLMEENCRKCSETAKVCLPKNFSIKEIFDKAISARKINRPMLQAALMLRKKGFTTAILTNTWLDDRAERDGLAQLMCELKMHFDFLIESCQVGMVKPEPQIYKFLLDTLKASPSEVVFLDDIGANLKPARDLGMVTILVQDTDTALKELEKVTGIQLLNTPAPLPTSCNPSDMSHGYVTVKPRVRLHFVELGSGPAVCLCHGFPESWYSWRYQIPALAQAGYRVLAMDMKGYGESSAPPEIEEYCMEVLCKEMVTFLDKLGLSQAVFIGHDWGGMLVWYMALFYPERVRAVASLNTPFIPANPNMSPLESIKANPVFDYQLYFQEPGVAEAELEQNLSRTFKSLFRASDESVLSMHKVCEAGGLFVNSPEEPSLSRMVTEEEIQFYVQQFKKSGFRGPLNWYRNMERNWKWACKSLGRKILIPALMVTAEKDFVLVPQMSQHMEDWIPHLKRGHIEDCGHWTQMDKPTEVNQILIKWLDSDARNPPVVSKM
The assay can be described thus: in vitro biochemical activity test, sEH enzyme inhibition with EET substrate (LC-MS). Particulars: 90 min pre-incubation at room temperature, 60 min reaction. As to the method: This example relates to the relationship between the structure and activity of (hetero)aryl imidazole compounds containing an aromatic substituent. Specifically, the biochemical activity of the (hetero)aryl imidazole compounds containing an aromatic substituent described in Example 1 as sEH enzyme inhibitors was evaluated by in vitro activity test experiments.
The experimental procedures for evaluating in vitro biochemical activity were described below.
The substrate used in the evaluation experiment was epoxyeicosatrienoic acid (EET). The solutions used in the evaluation experiments were Bis/Tris HCl 25 mM pH 7.0, Bis/Tris HCl 25 mM pH 7.0 containing 0.1 mg/mL BSA was used as buffer A, and Bis/Tris HCl 25 mM pH 7.0 containing 36.3 mM ZnSO4 was used as buffer B.
The specific steps of the evaluation experiment were as follows. 79 μL of buffer A was added to each well in a black 96-well plate and then 1 μL solution of the aromatic substituent-containing (hetero)aryl imidazole compound was added. Then, 10 μL sEH (1 μM) buffer A solution was added to the wells. After pre-incubation at room temperature for 90 min, 10 μL EET (10 μM) buffer A solution was added to trigger the reaction. After the mixture was allowed to react […] for 60 min, 15 μL buffer B and 180 μL acetonitrile were added to quench the reaction, followed by high-speed centrifugation and filtration for later use.
LC-MS was used to detect the concentration of EET in the samples. The final IC50 was calculated based on three independent experiments using Graphpad Prism software.
As to `CC(C)n1nccc1-c1cc2nc(-c3ccc(S(=O)(=O)N(C)C)cc3)[nH]c2cc1F` [Compound 21, 4-(5-fluoro-6-(1-isopropyl-1H-pyrazol-5-yl)-1H-benzo[d]imidazol-2-yl)-N,N-dimethyl-benzenesulfonamide], the IC50 (commonly the point on the concentration scale where inhibition reaches its midpoint) worked out at 0.051 nM.
In the case of `Cc1ccc(-c2cc3nc(-c4ccc(C(F)(F)F)cc4)[nH]c3cc2F)cn1` [Compound 15, 5-fluoro-6-(6-methylpyridin-3-yl)-2-(4-(trifluoromethyl)-phenyl)-1H-benzo[d]imidazole] it was 0.62 nM; in that of `CN(C)S(=O)(=O)c1ccc(-c2nc3cc(-c4ccncc4Cl)c(F)cc3[nH]2)cc1` [Compound 1, 4-(6-(3-chloropyridin-4-yl)-5-fluoro-1H-benzo[d]imidazol-2-yl)-N,N-dimethylbenzene-sulfonamide], 0.11 nM; in that of `CC(C)c1ncncc1-c1cc2[nH]c(-c3ccc(S(=O)(=O)N(C)C)cc3)nc2cc1F` [Compound 47, 4-(5-fluoro-6-(4-isopropyl-pyrimid-5-yl)-1H-benzo[d]imidazol-2-yl)-N,N-dimethyl-benzenesulfonamide], 0.036 nM.
`Cc1cc(-c2cc3nc(-c4ccc(C(F)(F)F)cc4)[nH]c3cc2F)n(C)n1` [Compound 13, 6-(1,3-dimethyl-1H-pyrazol-5-yl)-5-fluoro-2-(4-(trifluoro-methyl)phenyl)-1H-benzo[d] imidazole] returned an IC50 of 0.4 nM.
`Cc1ncc(-c2cc3nc(-c4ccc(S(=O)(=O)N(C)C)cc4)[nH]c3cc2F)c(C)n1` [Compound 29, 4-(6-(2,4-dimethylpyrimid-5-yl)-5-fluoro-1H-benzo[d]imidazol-2-yl)-N,N-dimethyl-benzenesulfonamide] gave an IC50 of 0.083 nM.
In the case of `Cc1nc(N)ncc1-c1cc2[nH]c(-c3ccc(C(F)(F)F)cc3)nc2cc1F` [Compound 42, 5-(5-fluoro-2-(4-(trifluoro-methyl)phenyl)-1H-benzo[d]imidazol-6-yl)-4-methylpyrim-idine-2-amine] it was 0.14 nM.
As for `CC(C)n1ccnc1-c1cc2[nH]c(-c3ccc(C(F)(F)F)cc3)nc2c(F)c1F` [Compound 72, 2-(4-(trifluoromethyl)phenyl)-6-(1-isopropyl-1H-imidazol-2-yl)-4,5-difluoro-1H-benzo[d] imidazole], the midpoint of inhibition, the IC50, lay at 0.77 nM.
In the case of `Cc1ncc(-c2ccc3[nH]c(-c4ccc(C(F)(F)F)cc4)nc3c2F)cn1` [Compound 14, 7-fluoro-6-(2-methylpyrimid-5-yl)-2-(4-(trifluoromethyl)-phenyl)-1H-benzo[d]imidazole] it was 0.94 nM; in that of `CS(=O)(=O)c1ccc(-c2nc3cc(-c4cnc(N5CCOCC5)nc4)c(F)cc3[nH]2)cc1` [Compound 20, 4-(5-(5-fluoro-2-(4-(methyl-sulfonyl)phenyl)-1H-benzo[d]imidazol-6-yl)pyrimidine-2-yl)morpholine], 2.21 nM; in that of `CN1CCN(c2ncc(-c3cc4nc(-c5ccc(C(F)(F)F)cc5)[nH]c4cc3F)cn2)CC1` [Compound 17, 5-fluoro-6-(2-(4-methylpiper-azine-1-yl)pyrimid-5-yl)-2-(4-(trifluoromethyl)phenyl)-1H-benzo[d]imidazole], 4.8 nM.
